The text below walks through data of patent publication US7105679B2, “Heteroatom containing tetracyclic derivatives as selective estrogen receptor modulators” (priority 2001, dated 2006).

pEC50, pIC50: −log10 of the molar value. Values joined by “and” are separate entries in the source; they are usually repeats but may differ in a detail not shown here. Equal entries are not always repeated. Where two headings read alike, the source gives them in different places.

Experiment [1] has as its target T1, hER-β (Homo sapiens, UniProt Q92731).
T1 construct: purchased Panvera
The experiment in a line: Estrogen Receptor β Fluorescence Polarization Assay (binding of Fluormone ES2). An excerpt: This assay monitors binding of a fluorescent analog of estrogen (Fluormone ES2, Panvera) to the estrogen receptor. Plates are read in a fluorometer that can be set to polarization mode. A decrease in […] relative to vehicle control is an indication of binding of a compound to the receptor.
It is crucial to avoid introduction of air bubbles into the reaction in each well of the 96 well plate throughout this procedure. (Bubbles on the surface of the reaction disrupt light flow, affecting the polarization reading.) However, it is also crucial to effectively mix the reaction components upon addition to the well.
On ice, a 2× standard mixture of Assay Buffer (Panvera), 10 nM DTT and 40 nM ES2 was prepared. On ice, a 2× reaction mixture of Assay Buffer (Panvera), and 20 nM hER-β (Panvera) and 40 nM ES2 was also prepared.
Dilutions of test compound were prepared in 30% (v/v) dimethyl sulfoxide/50 mM HEPES, pH 7.5. At this point, the dilutions were 40× the final required concentration.
The standard mixture at 50 μL was then added to each well. The reaction mixture at 48 μL was added to all wells. The compound dilution at 2.5 μL was added to the appropriate wells. The reaction mixtures were mixed using a manual pipette, a roll of aluminum foil adhesive cover was placed on the plate and the plate incubated at room temperature for 1 hour.

The subject of experiment [2] is MCF-7 cells. Kind of experiment: MCF-7 Cell Proliferation Assay (14C-thymidine, agonist and antagonist mode). In kind it is cell-based. As to conditions: number in brackets = number of tests, NA = no detected activity at test concentration. As for the experimental part: This assay was run according to the procedure described by Welshons, et al., (Breast Cancer Res. Treat., 1987, 10(2), 169-75), with minor modification.
Briefly, MCF-7 cells (from Dr. C. Jordan, Northwestern University) were maintained in RPMI 1640 phenol red free medium (Gibco) in 10% FBS (Hyclone), supplemented with bovine insulin and non-essential amino acid (Sigma). The cells were initially treated with 4-hydoxyltamoxifen (10^−8 M) and let stand at 37° C. for 24 hours. Following this incubation with tamoxifen, the cells were treated with compounds at various concentrations.
Compounds to be tested in the agonist mode were added to the culture media at varying concentrations. Compounds to be treated in the antagonist mode were prepared similarly, and 10 nM 17β-estradiol was also added to the culture media. The cells were incubated for 24 hours at 37° C. Following this incubation, 0.1 μCi of ^14C-thymidine (56 mCi/mmol, Amersham) was added to the culture media and the cells were incubated for an additional 24 hours at 37° C. The cells were then washed twice with Hank's buffered salt solution (HBSS) (Gibco) and counted with a scintillation counter. The increase in the ^14C-thymidine in the compound treated cells relative to the vehicle control cells were reported as percent increase in cell proliferation.

Experiment [3] has as its system Ishikawa cells. The experiment in a line: Alkaline Phosphatase Assay in Human Endometrial Ishikawa Cells (agonist and antagonist mode). In kind it is cell-based. As to conditions: number in brackets = number of tests, NA = no detected activity at test concentration; for pEC50: agonist mode; for pIC50: antagonist mode with 10 nM 17β-estradiol. The method, then:
This assay was run according to the procedure described by Albert et a., Cancer Res, […], 50(11), 330-6-10, with minor modification.
Ishikawa cells (from ATCC) were maintained in DMEM/F12 (1:1) phenol red free medium (Gibco) supplemented with 10% calf serum (Hyclone). 24 hours prior to testing, the medium was changed to DMEM/F12 (1:1) phenol red free containing 2% calf serum.
Compounds to be tested in the agonist mode were added to the culture media at varying concentrations. Compounds to be treated in the antagonist mode were prepared similarly, and 10 nM 17β-estradiol was also added to the culture media. The cells were then incubated at 37° C. for 3 days. On the fourth day, the media was remove, 1 volume of 1× Dilution Buffer (Clontech) was added to the well followed by addition of 1 volume of Assay Buffer (Clontech). The cells were then incubated at room temperature for 5 minutes. […] The cells were incubated at room temperature for 10 minutes and then quantified on a luminometer. The increase of chemiluminescence over vehicle control was used to calculate the increase in alkaline phosphatase activity.

The target in experiment [4] is T2, human estrogen receptor α (Homo sapiens, UniProt P03372).
T2 construct: purchased Panvera
T2 sequence (P03372 1-595): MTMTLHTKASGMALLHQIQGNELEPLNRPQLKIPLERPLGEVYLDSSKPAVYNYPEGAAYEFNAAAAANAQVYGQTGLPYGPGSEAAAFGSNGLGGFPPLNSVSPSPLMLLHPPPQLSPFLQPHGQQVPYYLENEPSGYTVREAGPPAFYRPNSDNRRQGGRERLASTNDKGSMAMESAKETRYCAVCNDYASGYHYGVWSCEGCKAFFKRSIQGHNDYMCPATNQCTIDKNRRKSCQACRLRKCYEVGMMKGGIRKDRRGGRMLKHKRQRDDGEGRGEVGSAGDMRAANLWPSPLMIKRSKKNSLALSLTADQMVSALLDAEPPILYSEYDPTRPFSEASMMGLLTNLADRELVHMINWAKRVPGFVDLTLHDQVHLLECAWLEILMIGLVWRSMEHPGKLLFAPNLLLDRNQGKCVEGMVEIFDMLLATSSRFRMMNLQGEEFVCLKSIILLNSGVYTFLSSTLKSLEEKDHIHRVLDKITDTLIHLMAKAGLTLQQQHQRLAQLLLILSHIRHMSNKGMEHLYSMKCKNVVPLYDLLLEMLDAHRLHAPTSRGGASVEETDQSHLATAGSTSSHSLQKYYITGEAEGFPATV
Kind of experiment: Estrogen Receptor α Flash Plate Assay (binding of radiolabeled estrogen). The following applies: for IC50: flash plate binding, 0.5 nM radiolabeled estrogen, number in brackets = No. of determinations, NA = no detected activity at test concentration, read-out: Estrogen Receptor α in μM (No.). The method, then:
This assay monitors binding of radiolabeled estrogen to the estrogen receptor. It is performed on a BioMek 2000 (Beckman). Plates are read in a scintillation counter (Packard TopCount), with decreased counts an indication of binding of a compound to the receptor.
The plate was sealed and incubated at 4° C. overnight.
On day two, each well was washed three times with 200 μL PBS, pH 7.2, at room temperature. To each well was then added 98 μL radiolabeled estrogen (0.5 nM, which equals 6 nCi for a 120 Ci/mmol batch, Amersham), diluted in ESB and 5 mM dithiothreitol (DTT). To individual wells were then added 2.5 μL test compound diluted in 30% (v/v) dimethyl sulfoxide/50 mM HEPES, pH 7.5. The wells were mixed three times by aspiration, the plate sealed and incubated at room temperature for one hour. The wells were then counted for 1 min in a TopCount scintillation counter (Packard).

[5] abbreviates: Homo sapiens, MCF7, agonist mode.
[6] abbreviates: Homo sapiens, MCF7, antagonist mode with 10 nM 17β-estradiol.

T1 sequence (Q92731 whole entry): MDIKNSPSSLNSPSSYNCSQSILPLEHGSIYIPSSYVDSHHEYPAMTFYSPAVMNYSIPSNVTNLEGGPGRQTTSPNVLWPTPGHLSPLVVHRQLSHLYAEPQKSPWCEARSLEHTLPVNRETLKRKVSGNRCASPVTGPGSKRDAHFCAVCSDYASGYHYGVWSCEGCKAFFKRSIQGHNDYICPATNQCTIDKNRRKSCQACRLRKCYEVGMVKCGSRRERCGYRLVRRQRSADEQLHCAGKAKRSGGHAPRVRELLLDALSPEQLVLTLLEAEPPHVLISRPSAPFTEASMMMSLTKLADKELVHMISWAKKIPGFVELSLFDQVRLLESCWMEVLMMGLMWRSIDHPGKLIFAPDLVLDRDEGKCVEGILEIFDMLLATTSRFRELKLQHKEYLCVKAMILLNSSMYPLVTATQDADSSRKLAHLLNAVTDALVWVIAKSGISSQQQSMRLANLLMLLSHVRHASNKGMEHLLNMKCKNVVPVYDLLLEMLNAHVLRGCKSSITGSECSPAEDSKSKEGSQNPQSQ

Broadly, the pEC50 is the negative decadic logarithm of the EC50, by convention in mol/L. Read a low pEC50 as a high EC50. The term pIC50 denotes the negative decadic logarithm of the IC50, by convention in mol/L. Turning to `Oc1ccc2c(c1)O[C@@H](c1ccc(OCCN3CCCCC3)cc1)C1=C2COc2cc(O)ccc21` (stereo in doubt) [Compound 15, 5S*-(+)-[4-(2-Piperidin-1-yl-ethoxy)-phenyl]-5,11-dihydro-chromeno[4,3-c]chromene-2,8-diol], the IC50 in experiment [1] (fluorescence polarization binding, Fluormone ES2, number in brackets = No. of determinations, NA = no detected activity at test concentration, read-out: Estrogen Receptor β in μM (No.)) was 0.017 µM and 0.028 µM. Further, the pEC50 in experiment [2] (agonist mode) was < 5.00. Moreover, in experiment [3], the pEC50 was < 5.00 and the negative logarithm of the IC50 (pIC50) is 6.95.

Regarding `c1ccc2c(c1)O[C@@H](c1ccc(OCCN3CCCCC3)cc1)C1=C2COc2ccccc21` (stereo in doubt) [Compound 169, 5S*-(+)-1-{2-[4-(5,11-Dihydro-chromeno[4,3-c]chromen-5-yl)-phenoxy]-ethyl}-piperidine], the IC50 in experiment [4] came out at 0.072 µM. Moreover, the pIC50 in experiment [2] (antagonist mode with 10 nM 17β-estradiol) is ≤ 5.00; in experiment [3] it was 6.08.

As to `Oc1ccc2c(c1)OC(c1ccccc1)C1=C2COc2cc(O)ccc21` (stereo not drawn) [Compound 6, 5-Phenyl-5,11-dihydro-chromeno[4,3-c]chromene-2,8-diol], the negative-log IC50 (pIC50) in experiment [1] is 7.80; in experiment [2] (setting [6]), < 5.00; in experiment [3] (Homo sapiens), < 5.00. Also, the results for the negative logarithm of the EC50 (pEC50) in experiment [2] (setting [5]) and in experiment [3] (Homo sapiens) were 7.01 and 7.48, respectively.

Take `Oc1ccc2c(c1)OC(c1ccc(OCCN3CCCC3)cc1)C1=C2COc2cc(O)ccc21` (stereo not drawn) [Compound 11, 5-[4-(2-Pyrrolidin-1-yl-ethoxy)-phenyl]-5,11-dihydrochromeno[4,3-c]chromene-2,8-diol]: the values for the pIC50 in experiment [1], in experiment [2] (setting [6]) and in experiment [3] (Homo sapiens) were 6.15, 6.61 and 7.10, respectively. Besides, in experiment [2] (setting [5]), the pEC50 is < 5.00.

Take `Oc1ccc2c(c1)OC(c1ccc(OCCN3CCOCC3)cc1)C1=C2COc2cc(O)ccc21` (stereo not drawn) [Compound 13, 5-[4-(2-Morphlin-4-yl-ethoxy)-phenyl]-5,11-dihydrochromeno[4,3-c]chromene-2,8-diol]: the values for the negative-log IC50 (pIC50) in experiment [1], in experiment [2] (setting [6]) and in experiment [3] (Homo sapiens) were 7.59, 5.85 and 6.64, respectively. The negative-log EC50 (pEC50) in experiment [2] (setting [5]) and in experiment [3] (Homo sapiens) was < 5.00 in each case.

Consider `Oc1ccc2c(c1)OC(c1ccc(OCCN3CCCCCC3)cc1)C1=C2COc2cc(O)ccc21` (stereo not drawn) [Compound 17, 5-[4-(2-Azepan-1-yl-ethoxy)-phenyl]-5,11-dihydrochromeno[4,3-c]chromene-2,8-diol], for which the negative logarithm of the IC50 (pIC50) in experiment [1] is 7.51; in experiment [2] (setting [6]) it was 5.45; in experiment [3] (Homo sapiens), 6.29. Moreover, the negative logarithm of the EC50 (pEC50) in experiment [2] (setting [5]) and in experiment [3] (Homo sapiens) was < 5.00 in each case.

For `CC(C)(C)C(=O)Oc1ccc2c(c1)OC(c1ccc(OCCN3CCCCC3)cc1)C1=C2COc2cc(OC(=O)C(C)(C)C)ccc21` (stereo not drawn) [Compound 22, 2,2-Dimethyl-propionic acid, 8-(2,2-dimethyl-propionyloxy)-5-[4-(2-piperidin-1-yl-ethoxy)-phenyl]-5,11-dihydro-chromeno[4,3-c]chromen-2-yl ester], the IC50 in experiment [4] was determined as 3.45 µM. Moreover, the pEC50 in experiment [2] (setting [5]) and in experiment [3] (Homo sapiens) was < 5.00 each time. The pIC50 in experiment [2] (setting [6]) was 6.18; in experiment [3] (Homo sapiens), 7.27.

Regarding `CC(C)(C)C(=O)Oc1ccc2c(c1)OC(C)(c1ccc(OCCN3CCCCC3)cc1)C1=C2COc2cc(OC(=O)C(C)(C)C)ccc21` (stereo not drawn) [Compound 41, 2,2-Dimethyl-propionic acid 8-(2,2-dimethyl-propionyloxy)-11-methyl-11-[4-(2-piperidin-1-yl-ethoxy)-phenyl]-5,11-dihydro-chromeno[4,3-c]chromen-2-yl ester], the IC50 in experiment [4] is 1.9 µM. The pEC50 in experiment [2] (setting [5]) and in experiment [3] (Homo sapiens) was < 5.00 throughout. Besides, the pIC50 in experiment [2] (setting [6]) was < 5.00; in experiment [3] (Homo sapiens) it was 6.26.

On to `Oc1ccc2c(c1)OCCC1=C2C(c2ccc(OCCN3CCCCCC3)cc2)Oc2cc(F)ccc21` (stereo not drawn) [Compound 174, 5-[4-(2-Azepan-1-yl-ethoxy)-phenyl]-8-fluoro-11,12-dihydro-5H-6,13-dioxa-benzo[3,4]cyclohepta[1,2-a]naphthalen-2-ol], for which the pIC50 in experiment [4] is 8.82 and 8.89; in experiment [2] (setting [6]) it was 5.76; in experiment [3] (Homo sapiens), 6.87.
